Biological target: T1, hA1AR A52V^2.47 (Homo sapiens, UniProt P30542, A52V)
T1 construct: expressed in transfected cells; host or cells: S. cerevisiae MMY24
T1 sequence (P30542 1-326 A52V): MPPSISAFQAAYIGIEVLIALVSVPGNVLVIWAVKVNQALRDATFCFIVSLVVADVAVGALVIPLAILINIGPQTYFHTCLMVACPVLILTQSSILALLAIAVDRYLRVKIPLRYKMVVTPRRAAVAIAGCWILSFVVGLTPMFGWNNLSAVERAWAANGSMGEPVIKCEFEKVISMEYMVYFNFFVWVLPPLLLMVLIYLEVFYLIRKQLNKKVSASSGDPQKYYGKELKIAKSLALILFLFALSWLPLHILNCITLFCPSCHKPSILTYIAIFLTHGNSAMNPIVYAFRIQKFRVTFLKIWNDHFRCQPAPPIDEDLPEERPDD
Assay: yeast liquid growth assay
Format: cell-based

OC[C@H]1O[C@@H](n2cnc3c(NC4CCCC4)ncnc32)[C@H](O)[C@@H]1O [CPA, N^6-cyclopentyladenosine]
decrease in potency versus wild type hA1AR: more than 400 fold
